Assay results taken from patent US6933304B2, “Heteroarylalkanoic acids as integrin receptor antagonists” (Pharmacia Corporation, priority 2000, dated 2005).
Counter-ions that a name gives are not always drawn.

Key:
[1] = biological target: T1, Human fibrinogen receptor (IIb/IIIa) (Homo sapiens, UniProt P05106+P08514); experiment: Purified IIb/IIIa receptor assay (solid phase receptor assay, SPRA); assay type: binding; conditions: selectivity ratio: IC50 αIIbβ3 (solid phase receptor assay) over IC50 β3
T1 construct: Human fibrinogen receptor (IIb/IIIa) was purified from outdated platelets; from tissue; host or cells: outdated human platelets
T1 sequence (P08514 32-887 limits assumed): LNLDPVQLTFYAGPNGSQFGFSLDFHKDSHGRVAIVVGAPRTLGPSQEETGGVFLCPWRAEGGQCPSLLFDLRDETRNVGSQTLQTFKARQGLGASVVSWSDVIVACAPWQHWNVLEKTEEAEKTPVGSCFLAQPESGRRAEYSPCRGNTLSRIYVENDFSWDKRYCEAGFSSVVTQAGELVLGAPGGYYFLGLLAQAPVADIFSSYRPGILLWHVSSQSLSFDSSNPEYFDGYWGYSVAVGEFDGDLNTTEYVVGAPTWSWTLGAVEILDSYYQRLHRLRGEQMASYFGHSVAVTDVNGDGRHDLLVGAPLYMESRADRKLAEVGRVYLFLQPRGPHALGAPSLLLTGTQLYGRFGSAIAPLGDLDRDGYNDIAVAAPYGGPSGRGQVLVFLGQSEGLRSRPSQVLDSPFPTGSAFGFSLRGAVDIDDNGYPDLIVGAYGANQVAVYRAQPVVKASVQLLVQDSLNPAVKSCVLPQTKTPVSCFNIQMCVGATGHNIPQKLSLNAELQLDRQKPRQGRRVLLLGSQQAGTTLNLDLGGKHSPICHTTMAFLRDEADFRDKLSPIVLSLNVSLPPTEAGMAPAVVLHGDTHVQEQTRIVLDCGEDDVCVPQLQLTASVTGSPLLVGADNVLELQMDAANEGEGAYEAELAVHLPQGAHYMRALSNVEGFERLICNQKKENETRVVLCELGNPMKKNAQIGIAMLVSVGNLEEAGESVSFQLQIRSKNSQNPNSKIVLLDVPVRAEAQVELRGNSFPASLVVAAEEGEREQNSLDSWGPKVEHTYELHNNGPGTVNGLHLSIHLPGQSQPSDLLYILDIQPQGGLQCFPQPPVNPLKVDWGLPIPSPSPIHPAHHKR
T1 sequence (P08514 891-1039 partner limits assumed): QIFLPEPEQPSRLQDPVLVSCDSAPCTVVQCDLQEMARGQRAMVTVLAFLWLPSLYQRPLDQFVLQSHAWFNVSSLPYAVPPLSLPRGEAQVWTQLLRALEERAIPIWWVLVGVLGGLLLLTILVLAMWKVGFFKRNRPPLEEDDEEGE
T1 sequence (P05106 27-788): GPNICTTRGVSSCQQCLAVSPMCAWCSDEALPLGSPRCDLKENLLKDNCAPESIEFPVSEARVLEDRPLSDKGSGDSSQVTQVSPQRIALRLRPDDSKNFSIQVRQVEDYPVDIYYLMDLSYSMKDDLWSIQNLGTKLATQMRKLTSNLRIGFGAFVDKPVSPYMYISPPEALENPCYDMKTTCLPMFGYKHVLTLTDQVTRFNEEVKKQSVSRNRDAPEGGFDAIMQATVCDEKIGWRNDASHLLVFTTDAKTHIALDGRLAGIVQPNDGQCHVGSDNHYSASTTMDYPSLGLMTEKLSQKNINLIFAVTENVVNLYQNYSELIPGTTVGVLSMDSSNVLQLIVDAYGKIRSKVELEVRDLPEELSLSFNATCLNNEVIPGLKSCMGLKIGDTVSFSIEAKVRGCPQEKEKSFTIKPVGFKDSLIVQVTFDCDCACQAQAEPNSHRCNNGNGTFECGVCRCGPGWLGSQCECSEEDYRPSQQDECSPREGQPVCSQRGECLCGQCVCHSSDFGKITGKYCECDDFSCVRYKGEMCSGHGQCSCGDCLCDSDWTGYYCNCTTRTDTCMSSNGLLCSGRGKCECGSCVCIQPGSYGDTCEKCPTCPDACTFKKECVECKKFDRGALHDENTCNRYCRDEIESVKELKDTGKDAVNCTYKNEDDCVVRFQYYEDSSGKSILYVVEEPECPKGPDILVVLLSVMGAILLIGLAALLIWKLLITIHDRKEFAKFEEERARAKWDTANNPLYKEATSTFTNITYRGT
Source text: Human fibrinogen receptor (IIb/IIIa) was purified from outdated platelets. (Pytela, R., Pierschbacher, M. D., Argraves, S., Suzuki, S., and Rouslahti, E. “Arginine-Glycine-Aspartic acid adhesion receptors”, Methods in Enzymology 144(1987):475-489.) Human vitronectin was purified from fresh frozen plasma as described in Yatohgo, T., Izumi, M., Kashiwagi, H., and Hayashi, M., “Novel purification of vitronectin from human plasma by heparin affinity chromatography,” Cell Structure and Function 13(1988):281-292. Biotinylated human vitronectin was prepared by coupling NHS-biotin from Pierce Chemical Company (Rockford, IL) to purified vitronectin as previously described. (Charo, I. F., Nannizzi, L., Phillips, D. R., Hsu, M. A., Scarborough, R. M., “Inhibition of fibrinogen binding to GP IIb/IIIa by a GP IIIa peptide”, J. Biol. Chem. 266(3)(1991): 1415-1421.) Assay buffer, OPD substrate tablets, and RIA grade BSA were obtained from Sigma (St. Louis, Mo.). Anti-biotin antibody was obtained from Sigma (St. Louis, Mo.). Nalge Nunc-Immuno microtiter plates were obtained from (Rochester, N.Y.). ADP reagent was obtained from Sigma (St. Louis, Mo.).
This assay is essentially the same reported in Niiya, K., Hodson, E., Bader, R., Byers-Ward, V. Koziol, J. A., Plow, E. F. and Ruggeri, Z. M., “Increased surface expression of the membrane glycoprotein IIb/IIIa complex induced by platelet activation: Relationships to the binding of fibrinogen and platelet aggregation”, Blood 70(1987):475-483. The purified human fibrinogen receptor (IIb/IIIa) was diluted from stock solutions to 1.0 μg/mL in Tris-buffered saline containing 1.0 mM Ca^++, Mg^++, and Mn^++, pH 7.4 (TBS^+++). The diluted receptor was immediately transferred to Nalge Nunc-Immuno microtiter plates at 100 μL/well (100 ng receptor/well). The plates were sealed and incubated overnight at 4° C. to allow the receptors to bind to the wells. All remaining steps were at room temperature. The assay plates were emptied and 200 μL of 1% RIA grade BSA in TBS^+++ (TBS^+++/BSA) were added to block exposed plastic surfaces. Following a 2 hour incubation, the assay plates were washed with TBS^+++ using a 96 well plate washer. Logarithmic serial dilution of the test compound and controls were made starting at a stock concentration of […] and using 2 nM biotinylated vitronectin in TBS^+++/BSA as the diluent. This premixing of labeled ligand with test (or control) ligand, and subsequent transfer of 50 μL aliquots to the assay plate was carried out with a CETUS Propette robot; the final concentration of the labeled ligand was 1 nM and the highest concentration of test compound was 1.0×10^−4 M. The competition occurred for two hours after which all wells were washed with a plate washer as before. Affinity purified horseradish peroxidase labeled goat anti-biotin antibody was diluted 1:2000 in TBS^+++/BSA and 125 μL were added to each well. After 45 minutes, the plates were washed and incubated with […] substrate in 100 mM/L citrate buffer, pH 5.0. The plate was read with a microtiter plate reader at a wavelength of 450 nm and when the maximum-binding control wells reached an absorbance of about 1.0, the final A450 were recorded for analysis. The data were analyzed using a macro written for use with the EXCELJ spreadsheet program. The mean, standard deviation, and %CV were determined for duplicate concentrations. The mean A450 values were normalized to the mean of four maximum-binding controls (no competitor added)(B-MAX). The normalized values were subjected to a four parameter curve fit algorithm, [Robard et al., Int.

[2] = biological target: T2, αVβ6 (HT-29 human colon carcinoma cells) (Homo sapiens, UniProt P06756+P18564); experiment: HT-29 cell adhesion assay (adhesion to immobilized LAP); assay type: cell-based; conditions: selectivity ratio: IC50 αVβ6 (HT-29) over IC50 β3
T2 construct: endogenous in cells; host or cells: HT-29 human colon carcinoma cells
T2 sequence (P06756 31-889 limits assumed): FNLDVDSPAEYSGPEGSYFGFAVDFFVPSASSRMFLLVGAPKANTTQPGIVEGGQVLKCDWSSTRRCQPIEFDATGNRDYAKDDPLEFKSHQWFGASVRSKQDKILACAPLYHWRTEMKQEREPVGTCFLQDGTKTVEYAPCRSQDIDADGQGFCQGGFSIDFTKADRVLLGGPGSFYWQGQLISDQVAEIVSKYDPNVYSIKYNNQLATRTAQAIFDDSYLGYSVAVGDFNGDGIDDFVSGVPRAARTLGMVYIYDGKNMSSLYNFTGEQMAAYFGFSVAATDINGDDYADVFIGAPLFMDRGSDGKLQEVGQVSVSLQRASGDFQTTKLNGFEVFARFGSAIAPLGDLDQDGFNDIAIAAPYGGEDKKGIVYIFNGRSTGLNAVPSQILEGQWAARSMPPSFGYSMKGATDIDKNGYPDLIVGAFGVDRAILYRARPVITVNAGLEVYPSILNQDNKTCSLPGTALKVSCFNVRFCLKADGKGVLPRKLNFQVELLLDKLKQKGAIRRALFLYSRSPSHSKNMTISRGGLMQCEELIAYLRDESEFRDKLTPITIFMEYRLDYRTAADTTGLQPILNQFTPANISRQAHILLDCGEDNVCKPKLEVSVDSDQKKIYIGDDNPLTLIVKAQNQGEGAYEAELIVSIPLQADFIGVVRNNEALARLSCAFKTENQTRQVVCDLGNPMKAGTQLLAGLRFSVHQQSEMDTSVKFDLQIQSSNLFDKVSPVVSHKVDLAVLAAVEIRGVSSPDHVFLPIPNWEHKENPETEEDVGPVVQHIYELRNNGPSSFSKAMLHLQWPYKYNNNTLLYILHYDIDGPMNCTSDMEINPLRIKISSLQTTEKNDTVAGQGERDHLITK
T2 sequence (P06756 891-1048 partner limits assumed): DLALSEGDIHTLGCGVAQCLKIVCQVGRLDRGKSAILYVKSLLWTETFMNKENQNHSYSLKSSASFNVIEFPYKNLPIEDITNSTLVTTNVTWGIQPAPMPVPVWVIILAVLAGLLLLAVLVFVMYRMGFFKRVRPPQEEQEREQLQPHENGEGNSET
T2 sequence (P18564 22-788): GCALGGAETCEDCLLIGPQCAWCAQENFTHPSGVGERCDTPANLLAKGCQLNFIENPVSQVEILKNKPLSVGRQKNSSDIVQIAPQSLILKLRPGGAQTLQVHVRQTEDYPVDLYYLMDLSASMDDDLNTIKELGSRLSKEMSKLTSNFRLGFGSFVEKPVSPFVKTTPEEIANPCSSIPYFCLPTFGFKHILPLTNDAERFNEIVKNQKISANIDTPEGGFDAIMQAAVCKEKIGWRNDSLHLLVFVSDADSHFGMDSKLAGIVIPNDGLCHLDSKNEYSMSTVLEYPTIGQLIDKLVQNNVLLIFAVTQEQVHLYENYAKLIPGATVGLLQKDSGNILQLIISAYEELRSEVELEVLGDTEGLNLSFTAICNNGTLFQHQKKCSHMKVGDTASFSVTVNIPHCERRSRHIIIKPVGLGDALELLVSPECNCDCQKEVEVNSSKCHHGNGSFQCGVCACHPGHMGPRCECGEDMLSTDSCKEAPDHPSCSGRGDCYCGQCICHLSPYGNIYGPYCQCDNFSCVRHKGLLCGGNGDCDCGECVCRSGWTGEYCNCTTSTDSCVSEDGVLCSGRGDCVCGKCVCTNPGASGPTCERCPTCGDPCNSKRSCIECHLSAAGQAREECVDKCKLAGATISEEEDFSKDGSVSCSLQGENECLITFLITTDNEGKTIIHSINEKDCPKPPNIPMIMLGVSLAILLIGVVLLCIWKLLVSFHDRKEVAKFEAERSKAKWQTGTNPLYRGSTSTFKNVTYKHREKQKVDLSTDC
Protocol: To evaluate compound potency for membrane-bound αVβ6 an additional cell-based adhesion assay was established using the HT-29 human colon carcinoma cell line. High surface expression of αVβ6 on HT-29 cells was confirmed by flow cytometry. Conditions were established in which cell adhesion to immobilized human latency associated peptide (LAP) was mediated by the αVβ6, as determined by a panel of integrin-specific, neutralizing monoclonal antibodies. Briefly, cells were incubated with inhibitor in the presence of 200 uM Mn^2+, allowed to adhere to immobilized LAP, washed, and adherent cells are detected by quantifying endogenous alkaline phosphatase using para-nitrophenyl phosphate. An 8-point dose-response curve using either 10-fold or 3-fold dilutions of compound was evaluated by fitting a four-parameter logistic, nonlinear model (using SAS). The compounds evaluated were relatively ineffective at inhibition of αVβ6-mediated cell adhesion. The selective antagonism of the αVβ3 integrin is viewed as desirable in this class of compounds, as αVβ6 may also play a role in normal physiological processes of tissue repair and cellular turnover that routinely occur in the skin and pulmonary tissues.

[3] = biological target: T3, αVβ3 integrin (293-β3 cells) (Homo sapiens, UniProt P05106+P06756); experiment: 293-β3 cell adhesion assay (adhesion to immobilized vitronectin); assay type: cell-based; conditions: 200 uM Mn2+, read-out: 293-β3 (IC50 <10 μM)
T3 construct: expressed in transfected cells; host or cells: 293 human embryonic kidney cells (293-β3)
T3 sequence (P06756 31-889 limits assumed): as the sequence (P06756 31-889 limits assumed) above
T3 sequence (P06756 891-1048 partner limits assumed): as the sequence (P06756 891-1048 partner limits assumed) above
T3 sequence (P05106 27-788): as the sequence (P05106 27-788) above
Source text: While the β3 subunit of αVβ3 is only known to complex with αV or αIIb, the αV subunit complexes with multiple β subunits. The three αV integrins most homologous with αVβ3 are αVβ1, αVβ5 and αVβ6, with 43%, 56% and 47% amino acid identity in the β subunits, respectively. To evaluate the selectivity of compounds between the integrins αVβ3 and αVβ6, cell-based assays were established using the 293 human embryonic kidney cell line. 293 cells express αVβ1, but little to no detectable αVβ3 or αVβ6. cDNAs for β3 and β6 were transfected separately into 293 cells to generate 293-β3 and 293-β6 cells, respectively. High surface expression of αVβ3 and αVβ6 was confirmed by flow cytometry. Conditions were established for each cell line in which cell adhesion to immobilized human vitronectin was mediated by the appropriate integrin, as determined by a panel of integrin-specific, neutralizing monoclonal antibodies. Briefly, cells were incubated with inhibitor in the presence of 200 uM Mn^2+, allowed to adhere to immobilized vitronectin, washed, and adherent cells are detected endogenous alkaline phosphatase and para-nitrophenyl phosphate. An 8-point dose-response curve using either 10-fold or 3-fold dilutions of compound was evaluated by fitting a four-parameter logistic, nonlinear model (using SAS).

Row | Compound | SPRA AIIbB3 Selectivity* IIbIIIa/β3 [1] | HT-29 β-6 Selectivity* (β6/β3) [2] | IC50 [3] [µM]
1 | COc1ccc(C(CC(=O)O)Cc2nc(CCCCNc3ccccn3)no2)cc1.O=C(O)C(F)(F)F (stereo not drawn) [Example 23, 3-(4-methoxyphenyl)-4-{3-[4-(pyridin-2-ylamino)butyl]-1,2,4-oxadiazol-5-yl}butanoic acid] | ++ (Selectivity Ratio of 10-100 ++) | +++ (Selectivity Ratio >100 +++) | < 10
2 | O=C(O)C(F)(F)F.O=C(O)CC(Cc1nc(CCCCNc2ccccn2)no1)c1cccc(F)c1 (stereo not drawn) [Example 25, 3-(3-fluorophenyl)-4-{3-[4-(pyridin-2-ylamino)butyl]-1,2,4-oxadiazol-5-yl}butanoic acid trifluoroacetate] | ++ (Selectivity Ratio of 10-100 ++) | +++ (Selectivity Ratio >100 +++) | < 10
3 | O=C(O)C(F)(F)F.O=C(O)CC(Cc1nc(CCCCNc2ccccn2)no1)c1ccc(F)cc1 (stereo not drawn) [Example 27, 3-(4-fluorophenyl)-4-{3-[4-(pyridin-2-ylamino)butyl]-1,2,4-oxadiazol-5-yl}butanoic acid] | +++ (Selectivity Ratio >100 +++) | +++ (Selectivity Ratio >100 +++) | < 10
4 | O=C(O)C(F)(F)F.O=C(O)CC(Cc1nc(CCCCNc2ccccn2)no1)c1cccc(C(F)(F)F)c1 (stereo not drawn) [Example 29, 4-{3-[4-(pyridin-2-ylamino)butyl]-1,2,4-oxadiazol-5-yl}-3-[3-(trifluoromethyl)-phenyl]butanoic acid] | +++ (Selectivity Ratio >100 +++) | +++ (Selectivity Ratio >100 +++) | < 10
5 | O=C(O)CC(Cc1nc(CCCc2ccc3c(n2)NCCC3)no1)c1ccccc1 (stereo not drawn) [Example 34, 3-phenyl-4-{3-[3-(5,6,7,8-tetrahydro-1,8-naphthyridin-2-yl)propyl]-1,2,4-oxadiazol-5-yl}butanoic acid trifluoroacetate] | +++ (Selectivity Ratio >100 +++) | +++ (Selectivity Ratio >100 +++) | < 10
6 | O=C(O)CC(Cc1nc(CCCCNc2ccccn2)no1)c1ccccc1 (stereo not drawn) [Example 35, 3-phenyl-4-{3-[4-(pyridin-2-ylamino)butyl]-1,2,4-oxadiazol-5-yl}butanoic acid] | ++ (Selectivity Ratio of 10-100 ++) | +++ (Selectivity Ratio >100 +++) | < 10
7 | CCC(C)(CC(=O)O)Cc1nc(CCCCNc2ccccn2)no1 (stereo not drawn) [Example 36, 3-methyl-3-({3-[4-(pyridin-2-ylamino)butyl]-1,2,4-oxadiazol-5-yl}methyl)pentanoic acid] | +++ (Selectivity Ratio >100 +++) | +++ (Selectivity Ratio >100 +++) | < 10
8 | O=C(O)CC1(Cc2nc(CCCCNc3ccccn3)no2)CCCCC1 [Example 37, [1-({3-[4-(pyridin-2-ylamino)butyl]-1,2,4-oxadiazol-5-yl}methyl)cyclohexyl]-acetic acid] | ++ (Selectivity Ratio of 10-100 ++) | ++ (Selectivity Ratio of 10-100 ++) | < 10

Second part, the compound after the results:

Row | SPRA AIIbB3 Selectivity* IIbIIIa/β3 [1] | HT-29 β-6 Selectivity* (β6/β3) [2] | IC50 [3] [µM] | Compound
9 | +++ (Selectivity Ratio >100 +++) | +++ (Selectivity Ratio >100 +++) | < 10 | O=C(O)C(F)(F)F.O=C(O)CC(Cc1nc(CCCc2ccc3c(n2)NCCC3)no1)c1cccc(F)c1 (stereo not drawn) [Example 24, 3-(3-fluorophenyl)-4-{3-[3-(5,6,7,8-tetrahydro-1,8-naphthyridin-2-yl)propyl]-1,2,4-oxadiazol-5-yl}butanoic acid]
10 | +++ (Selectivity Ratio >100 +++) | +++ (Selectivity Ratio >100 +++) | < 10 | O=C(O)C(F)(F)F.O=C(O)CC(Cc1nc(CCCc2ccc3c(n2)NCCC3)no1)c1ccc(F)cc1 (stereo not drawn) [Example 26, 3-(4-fluorophenyl)-4-{3-[3-(5,6,7,8-tetrahydro-1,8-naphthyridin-2-yl)propyl]-1,2,4-oxadiazol-5-yl}butanoic acid trifluoroacetate]
11 | +++ (Selectivity Ratio >100 +++) | +++ (Selectivity Ratio >100 +++) | < 10 | O=C(O)C(F)(F)F.O=C(O)CC(Cc1nc(CCCc2ccc3c(n2)NCCC3)no1)c1cccc(C(F)(F)F)c1 (stereo not drawn) [Example 28, 4-{3-[3-(5,6,7,8-tetrahydro-1,8-naphthyridin-2-yl)propyl]-1,2,4-oxadiazol-5-yl}-3-[3-(trifluoromethyl)phenyl]butanoic acid]
12 | +++ (Selectivity Ratio >100 +++) | +++ (Selectivity Ratio >100 +++) | < 10 | O=C(O)C(F)(F)F.O=C(O)CC(Cc1nc(CCCc2ccc3c(n2)NCCC3)no1)c1cccnc1 (stereo not drawn) [Example 32, 3-pyridin-3-yl-4-{3-[3-(5,6,7,8-tetrahydro-1,8-naphthyridin-2-yl)propyl]-1,2,4-oxadiazol-5-yl}butanoic acid]
